Data on 11 compounds can be found in patent US20260193274A1, “AKT1 MODULATORS” (Alterome Therapeutics, Inc., priority 2022, published 2026).

A value given as a limit tells only on which side of the number the result lay.

The target in the test is T1, AKT1-E17K (Homo sapiens, UniProt P31749, E17K).
T1 construct: host or cells: HEK-293 (ATCC CRL-1573)
T1 sequence (P31749 whole entry E17K): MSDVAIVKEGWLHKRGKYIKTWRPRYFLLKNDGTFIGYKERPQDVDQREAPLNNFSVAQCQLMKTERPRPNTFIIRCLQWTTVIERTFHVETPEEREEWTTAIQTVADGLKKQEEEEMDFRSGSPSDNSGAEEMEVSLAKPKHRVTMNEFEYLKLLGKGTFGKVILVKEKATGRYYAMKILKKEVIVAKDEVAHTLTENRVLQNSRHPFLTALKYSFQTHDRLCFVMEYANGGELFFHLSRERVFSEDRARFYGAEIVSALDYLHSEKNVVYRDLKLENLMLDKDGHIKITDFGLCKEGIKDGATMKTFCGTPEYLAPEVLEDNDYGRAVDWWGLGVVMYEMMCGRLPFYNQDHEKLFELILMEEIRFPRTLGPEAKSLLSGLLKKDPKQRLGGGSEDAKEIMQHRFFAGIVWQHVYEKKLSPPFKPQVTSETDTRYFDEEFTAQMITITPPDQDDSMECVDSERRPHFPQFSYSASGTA
As to the kind of experiment: NanoBRET Target Engagement (TE) Assay. The class given is cell-based. The note with it: full length AKT E17K NanoLuc fusion in transfected HEK-293 cells; 2 hr equilibration with tracer and compound. From the text: NanoBRET is a highly specific and validated cell-based technique for assessing target engagement (Vasta et al., 2018, Cell Chem Biol. 25(2):206-214). The NanoBRET™ Target Engagement (TE) Intracellular Kinase Assays are based on the NanoBRET™ System (Promega Corporation), an energy transfer technique designed to measure molecular proximity in living cells. The NanoBRET™ TE Assays measure the apparent affinity of test compounds by competitive displacement of the NanoBRET™ tracer compound, which is a cell permeable molecule engineered to be reversibly bound to a NanoLuc® luciferase-kinase fusion expressed in cells. For compound screening, when a test compound binds to the selected kinase, the BRET signal is attenuated. For kinase inhibitors in particular, intracellular target selectivity is fundamental to pharmacological mechanism and allows the proteins of interest to be in the correct cellular confirmation. Although non-cell-based techniques have been developed to measure kinase binding or enzymatic inhibition with accuracy and precision, such approaches can fail to accurately predict engagement of the full-length target protein in the more complex and biologically relevant cellular context (Knight and Shokat, 2005, Chem. Biol. 12, 621-637; Smyth and Collins, 2009, J. Chem. Biol. 2, 131-151). […] Briefly, HEK-293 cells (ATCC Cat #CRL-1573) were used for transfection purposes using FuGENE HD Transfection Reagent (Promega Cat #E2311). All cells were evaluated for viability prior to transfection and optimization of the transfection was done prior to experimentation. Greater than 95% viability was used for all experiments. Following transfection, cells were washed and resuspended in Opti-MEM. NanoBRET assays were performed in white, 384-well plates (Corning) at a density of 2×10^5 cells/well. All example compounds were prepared as concentrated stock solutions in DMSO (Sigma-Aldrich). Compounds are dissolved in DMSO to make 10 mM stock solution. Example compounds were transferred as 40 μL of 10 mM stock solution to a 384 pp-plate (LABCYTE, PP-0200) and diluted in 3-fold, 10-point dilution via transferring […] by Apricot liquid handler. A Labcyte ECHO 550 compound dispenser was used to facilitate compound transfer directly to cells. Cells were equilibrated for 2 hr with energy transfer probes and example compound prior to BRET measurements. The AKTE17K (Promega Cat #NV2421) as well as specific probe (NanoBRET tracer, Promega Cat #N264B) was prepared at a concentration of 20× in tracer dilution buffer (12.5 mM HEPES, 31.25% PEG-400, pH 7.5). For target engagement analysis, the energy transfer probes were added to the cells at concentrations optimized for the target in question (AKT E17K). Following compound incubation, NanoBRET NanoGlo Substrate (Promega Cat #N157D) and Extracellular Nanoluc Inhibitor (Promega Cat #N235C) was added according to the manufacturer's recommended protocol, and luminescence was measured on Envision Reader (Perkin Elmer) Multimode Luminometer equipped with 450 nmBPfilter (donor) and 600 nmLPfilter (acceptor), using 0.5 s integration time. Milli-BRET units (mBU) are calculated by multiplying the raw BRET values by 1000. Apparent tracer affinity values (EC50) were determined using the sigmoidal dose-response (variable slope). Competitive displacement data were then plotted and data were fit to determine the EC50 value for each example compound.
Background: In BRET a luciferase serves as donor, and the signal depends on an acceptor being close.
In the case of `[2H]C([2H])([2H])N(C#N)C1CCN(Cc2ccc(-n3c(-c4cccnc4N)nc4ccc(-c5ccccc5)nc43)cc2)CC1` [Example 41, N-(1-(4-(2-(2-Aminopyridin-3-yl)-5-phenyl-3H-imidazo[4,5-b]pyridin-3-yl)benzyl)piperidin-4-yl)-N-(methyl-d3)cyanamide], the IC50 is 15 to 60 nM.

The compound `N#CN1C[C@@H]2CN(Cc3ccc(-n4c(-c5cccnc5N)nc5ccc(-c6ccccc6)nc54)cc3)C[C@@H]2C1` [Example 43, (3aR,6aS)-5-(4-(2-(2-Aminopyridin-3-yl)-5-phenyl-3H-imidazo[4,5-b]pyridin-3-yl)benzyl)hexahydropyrrolo[3,4-c]pyrrole-2(1H)-carbonitrile] displayed an IC50 of 60 to 600 nM. The figure for `N#CN1CC[C@@]2(CCN(Cc3ccc(-n4c(-c5cccnc5N)nc5ccc(-c6ccccc6)nc54)cc3)C2)C1` [Example 23, (R)-7-(4-(2-(2-Aminopyridin-3-yl)-5-phenyl-3H-imidazo[4,5-b]pyridin-3-yl)benzyl)-2,7-diazaspiro[4.4]nonane-2-carbonitrile] is less than 15 nM; for `N#CNC1CC2(CCN(Cc3ccc(-n4c(-c5cccnc5N)nc5ccc(-c6ccccc6)nc54)cc3)CC2)C1` [Example 13, N-(7-(4-(2-(2-Aminopyridin-3-yl)-5-phenyl-3H-imidazo[4,5-b]pyridin-3-yl)benzyl)-7-azaspiro[3.5]nonan-2-yl)cyanamide] it is less than 15 nM; for `N#CN1C[C@@H]2C[C@H]1CN2Cc1ccc(-n2c(-c3cccnc3N)nc3ccc(-c4ccccc4)nc32)cc1` [Example 34, (1S,4S)-5-(4-(2-(2-Aminopyridin-3-yl)-5-phenyl-3H-imidazo[4,5-b]pyridin-3-yl)benzyl)-2,5-diazabicyclo[2.2.1]heptane-2-carbonitrile] it is 60 to 600 nM.

As for `N#CN1CC[C@]2(CCN(Cc3ccc(-n4c(-c5cccnc5N)nc5ccc(-c6ccccc6)nc54)cc3)C2)C1` [Example 40, (S)-7-(4-(2-(2-Aminopyridin-3-yl)-5-phenyl-3H-imidazo[4,5-b]pyridin-3-yl)benzyl)-2,7-diazaspiro[4.4]nonane-2-carbonitrile], the IC50 is less than 15 nM. As for `N#CN1CCCC2(C1)CN(Cc1ccc(-n3c(-c4cccnc4N)nc4ccc(-c5ccccc5)nc43)cc1)C2` [Example 39, 2-(4-(2-(2-Aminopyridin-3-yl)-5-phenyl-3H-imidazo[4,5-b]pyridin-3-yl)benzyl)-2,6-diazaspiro[3.5]nonane-6-carbonitrile], the figure is 60 to 600 nM. As for `N#CNC1CCN(Cc2ccc(-n3c(-c4cccnc4N)nc4cc(-c5ccccc5)cnc43)cc2)CC1` [Example 11, N-(1-(4-(2-(2-Aminopyridin-3-yl)-6-phenyl-3H-imidazo[4,5-b]pyridin-3-yl)benzyl)piperidin-4-yl)cyanamide], the figure is 60 to 600 nM; as for `N#CN1CCC2(CCN(Cc3ccc(-n4c(-c5cccnc5N)nc5ccc(-c6ccccc6)nc54)cc3)CC2)C1` [Example 16, 8-(4-(2-(2-Aminopyridin-3-yl)-5-phenyl-3H-imidazo[4,5-b]pyridin-3-yl)benzyl)-2,8-diazaspiro[4.5]decane-2-carbonitrile], less than 15 nM. As for `CC(=O)Nc1cccc(-c2ccc3nc(-c4cccnc4N)n(-c4ccc(CN5CCC(NC#N)CC5)cc4)c3n2)c1` [Example 4, N-(3-(2-(2-Aminopyridin-3-yl)-3-(4-((4-cyanamidopiperidin-1-yl)methyl)phenyl)-3H-imidazo[4,5-b]pyridin-5-yl)phenyl)acetamide], the figure is less than 15 nM; as for `N#CN[C@H]1CCCN(Cc2ccc(-n3c(-c4cccnc4N)nc4ccc(-c5ccccc5)nc43)cc2)C1` [Example 6, (S)—N-(1-(4-(2-(2-Aminopyridin-3-yl)-5-phenyl-3H-imidazo[4,5-b]pyridin-3-yl)benzyl)piperidin-3-yl)cyanamide], 15 to 60 nM.

One may read the IC50 as the concentration at which inhibition is half-maximal. A low value points to higher potency.
